The text below walks through data of patent US20240409510A1 (priority 2022, published 2024).

The experiment has as its target SARS-CoV-2 3CLpro (Severe acute respiratory syndrome coronavirus 2, UniProt P0DTD1). The experiment is classed as biochemical. The note with it: pH 7.5.
`CCCN(CCC)[C@@H]1C[C@@H](C(=O)NC(C[C@@H]2CCNC2=O)C(=O)C(=O)c2ccccc2)N(C(=O)[C@@H](NC(=O)C(F)(F)F)C(C)(C)C)C1` (stereo partly shown) [Compound 1]: the “Activity of SARS-CoV-2 MPro inhibitors” value was “A+++ (key: A >100 μM; A+ <50 μM; A++ <10 μM; A+++ <1 μM)”. With `CC(C)O[C@@H]1C[C@@H](C(=O)NC(C[C@@H]2CCNC2=O)C(=O)C(=O)c2ccccc2)N(C(=O)[C@@H](NC(=O)C(F)(F)F)C(C)(C)C)C1` (stereo partly shown) [Compound 2] the entry was “A+++ (key: A >100 μM; A+ <50 μM; A++ <10 μM; A+++ <1 μM)”; with `CC(C)(C)C(NC(=O)C(F)(F)F)C(=O)N1C[C@H]2[C@@H](C1C(=O)N[C@@H](C[C@@H]1CCNC1=O)C(=O)C(=O)c1ccccc1)C2(C)C` (stereo partly shown) [Compound 3], “A+++ (key: A >100 μM; A+ <50 μM; A++ <10 μM; A+++ <1 μM)”; with `CC(C)(C)[C@H](NC(=O)C(Cl)(Cl)Cl)C(=O)N1C[C@H]2[C@@H]([C@H]1C(=O)NC(C[C@@H]1CCNC1=O)C(=O)C(=O)c1ccccc1)C2(C)C` (stereo partly shown) [Compound 4], “A++ (key: A >100 μM; A+ <50 μM; A++ <10 μM; A+++ <1 μM)”. With `Cc1ccc(C(=O)C(=O)[C@H](C[C@@H]2CCNC2=O)NC(=O)C2[C@@H]3[C@H](CN2C(=O)C(NC(=O)C(F)(F)F)C(C)(C)C)C3(C)C)cc1` (stereo partly shown) [Compound 5] the entry was “A+++ (key: A >100 μM; A+ <50 μM; A++ <10 μM; A+++ <1 μM)”. As for `CC(C)(C)OC(=O)NC(C(=O)N1C[C@H]2[C@@H](C1C(=O)N[C@@H](C[C@@H]1CCNC1=O)C(=O)C(=O)c1ccc(F)cc1)C2(C)C)C(C)(C)C` (stereo partly shown) [Compound 6], the “Activity of SARS-CoV-2 MPro inhibitors” value is reported as “A+++ (key: A >100 μM; A+ <50 μM; A++ <10 μM; A+++ <1 μM)”. The result for `CC(C)(C)C(NC(=O)C(F)(F)F)C(=O)N1C[C@H]2[C@@H](C1C(=O)N[C@@H](C[C@@H]1CCNC1=O)C(=O)C(=O)c1ccc(F)cc1)C2(C)C` (stereo partly shown) [Compound 7] reads “A+++ (key: A >100 μM; A+ <50 μM; A++ <10 μM; A+++ <1 μM)”.

In the case of `COc1ccc(C(=O)C(=O)[C@H](C[C@@H]2CCNC2=O)NC(=O)C2[C@@H]3[C@H](CN2C(=O)C(NC(=O)C(F)(F)F)C(C)(C)C)C3(C)C)cc1` (stereo partly shown) [Compound 8], the “Activity of SARS-CoV-2 MPro inhibitors” value is listed as “A+++ (key: A >100 μM; A+ <50 μM; A++ <10 μM; A+++ <1 μM)”. With `CC(C)(C)C(NC(=O)C(Cl)(Cl)Cl)C(=O)N1C[C@H]2[C@@H](C1C(=O)N[C@@H](C[C@@H]1CCNC1=O)C(=O)C(=O)c1ccccc1)C2(C)C` (stereo partly shown) [Compound 9] the entry was “A (key: A >100 μM; A+ <50 μM; A++ <10 μM; A+++ <1 μM)”; with `Cc1cc(C)cc(C(=O)C(=O)[C@H](C[C@@H]2CCNC2=O)NC(=O)C2[C@@H]3[C@H](CN2C(=O)C(NC(=O)C(F)(F)F)C(C)(C)C)C3(C)C)c1` (stereo partly shown) [Compound 10], “A+++ (key: A >100 μM; A+ <50 μM; A++ <10 μM; A+++ <1 μM)”. With `CCCC(=O)C(=O)[C@H](C[C@@H]1CCNC1=O)NC(=O)C1[C@@H]2[C@H](CN1C(=O)C(NC(=O)C(F)(F)F)C(C)(C)C)C2(C)C` (stereo partly shown) [Compound 11] the entry was “A+++ (key: A >100 μM; A+ <50 μM; A++ <10 μM; A+++ <1 μM)”; with `CC(C)(C)[C@H](NC(=O)C(F)(F)F)C(=O)N1Cc2ccccc2C[C@H]1C(=O)N[C@@H](C[C@@H]1CCNC1=O)C(=O)C(=O)c1ccccc1` [Compound 12], “A+++ (key: A >100 μM; A+ <50 μM; A++ <10 μM; A+++ <1 μM)”; with `CC(C)(C)[C@H](NC(=O)C(F)(F)F)C(=O)N1Cc2ccccc2C[C@H]1C(=O)NC(CC1CCCNC1=O)C(=O)C(=O)c1ccccc1` (stereo partly shown) [Compound 13], “A+ (key: A >100 μM; A+ <50 μM; A++ <10 μM; A+++ <1 μM)”. With `CCCC(=O)C(=O)[C@H](C[C@@H]1CCNC1=O)NC(=O)[C@@H]1Cc2ccccc2CN1C(=O)[C@@H](NC(=O)C(F)(F)F)C(C)(C)C` [Compound 14] the entry was “A++ (key: A >100 μM; A+ <50 μM; A++ <10 μM; A+++ <1 μM)”. For the compound `COc1ccccc1C(=O)C(=O)[C@H](C[C@@H]1CCNC1=O)NC(=O)C1[C@@H]2[C@H](CN1C(=O)C(NC(=O)C(F)(F)F)C(C)(C)C)C2(C)C` (stereo partly shown) [Compound 15], the “Activity of SARS-CoV-2 MPro inhibitors” value was “A+++ (key: A >100 μM; A+ <50 μM; A++ <10 μM; A+++ <1 μM)”. The result for `CCCC(=O)C(=O)[C@H](C[C@@H]1CCNC1=O)NC(=O)[C@@H]1Cc2ccccc2CN1C(=O)[C@@H](NC(=O)OCc1ccncc1)C(C)(C)C` [Compound 16] reads “A+++ (key: A >100 μM; A+ <50 μM; A++ <10 μM; A+++ <1 μM)”; that for `CC(C)(C)[C@H](NC(=O)CCc1ccccc1)C(=O)N1Cc2ccccc2C[C@H]1C(=O)N[C@@H](C[C@@H]1CCNC1=O)C(=O)C(=O)c1ccccc1` [Compound 17], “A+++ (key: A >100 μM; A+ <50 μM; A++ <10 μM; A+++ <1 μM)”. With `CC(C)(C)[C@H](NC(=O)/C=C/c1ccccc1)C(=O)N1Cc2ccccc2C[C@H]1C(=O)N[C@@H](C[C@@H]1CCNC1=O)C(=O)C(=O)c1ccccc1` [Compound 18] the entry was “A+++ (key: A >100 μM; A+ <50 μM; A++ <10 μM; A+++ <1 μM)”.

On to `CC(C)(C)C(NC(=O)C(F)(F)F)C(=O)N1C[C@H]2[C@@H](C1C(=O)N[C@@H](C[C@@H]1CCNC1=O)C(=O)C(=O)c1ccncc1)C2(C)C` (stereo partly shown) [Compound 20], for which the “Activity of SARS-CoV-2 MPro inhibitors” value is listed as “A++ (key: A >100 μM; A+ <50 μM; A++ <10 μM; A+++ <1 μM)”.
